System: Qa-1
Experiment: Qa-1/peptide binding assay (flow cytometry-based competition with biotinylated Qdm)
Design: species or system mouse
Details: Qa-1 transfected HeLa cells, 0.5 μM biotinylated Qdm + 5 or 10 μM unlabeled competing peptide, 1.5 hours at 4°C, Fig 2A

Q: For OT-I: negative control OT-I peptide, which “Competition with bio-Qdm for binding to Qa-1 (decrease in streptavidin-APC staining)” value is on record?
A: unable to do so
